Experimental data taken from ChEMBL document CHEMBL4342421, “Current scenario of tetrazole hybrids for antibacterial activity” (Eur J Med Chem, 2019).

Key:
Streptococcus agalactiae = test: Antimicrobial activity against Streptococcus agalactiae 55118 assessed as zone of inhibition at 100 ug/ml after 24 hrs by disc diffusion method; format: functional; conditions: Streptococcus agalactiae, 55118, 24 h; read-out: IZ
Staphylococcus aureus [1] = test: Antimicrobial activity against Staphylococcus aureus ATCC 25923 assessed as zone of inhibition at 100 ug/ml after 24 hrs by disc diffusion method; format: functional; conditions: ATCC 25923, 24 h, read-out: IZ
Klebsiella pneumoniae [2] = test: Antimicrobial activity against Klebsiella pneumoniae ATCC 700603 assessed as zone of inhibition at 100 ug/ml after 24 hrs by disc diffusion method; format: functional; conditions: ATCC 700603, 24 h, read-out: IZ
Staphylococcus aureus [3] = test: Antimicrobial activity against Staphylococcus aureus assessed as zone of inhibition at 5 mg/ml; format: functional; conditions: read-out: IZ
Klebsiella pneumoniae [4] = test: Antimicrobial activity against Klebsiella pneumoniae assessed as zone of inhibition at 5 mg/ml; format: functional; conditions: read-out: IZ
Pseudomonas aeruginosa [5] = test: Antimicrobial activity against Pseudomonas aeruginosa assessed as zone of inhibition at 5 mg/ml; format: functional; conditions: read-out: IZ
Escherichia coli [6] = test: Antimicrobial activity against Escherichia coli assessed as zone of inhibition at 5 mg/ml; format: functional; conditions: read-out: IZ
Pseudomonas aeruginosa [7] = test: Antimicrobial activity against Pseudomonas aeruginosa ATCC 27853 after 24 hrs by two-fold broth serial dilution method; format: functional; conditions: ATCC 27853, 24 h
Staphylococcus aureus [8] = test: Antibacterial activity against methicillin resistant Staphylococcus aureus N315 after 24 hrs by two-fold broth serial dilution method; format: functional; conditions: N315, 24 h
Cyberlindnera jadinii = test: Antifungal activity against Candida utilis after 24 hrs; format: functional; conditions: Williopsis jadinii
Escherichia coli [9] = test: Antimicrobial activity against Escherichia coli JM 109 after 24 hrs by two-fold broth serial dilution method; format: functional; conditions: JM 109, 24 h
Shigella dysenteriae = test: Antimicrobial activity against Shigella dysenteriae after 24 hrs by two-fold broth serial dilution method; format: functional
Candida albicans [10] = test: Antifungal activity against Candida albicans ATCC 76615 after 24 hrs; format: functional; conditions: ATCC 76615, 24 h
Saccharomyces cerevisiae = test: Antifungal activity against Saccharomyces cerevisiae after 24 hrs; format: functional
Aspergillus flavus [11] = test: Antifungal activity against Aspergillus flavus after 24 hrs; format: functional
Pichia norvegensis = test: Antifungal activity against Candida mycoderma after 24 hrs; format: functional
Micrococcus luteus = test: Antibacterial activity against Micrococcus luteus ATCC 4698 after 24 hrs by two-fold broth serial dilution method; format: functional; conditions: ATCC 4698, 24 h
Bacillus subtilis [12] = test: Antibacterial activity against Bacillus subtilis ATCC 21216 after 24 hrs by two-fold broth serial dilution method; format: functional; conditions: ATCC 21216, 24 h
[13] = Antifungal activity against Rhodotorula ingeniosa assessed as zone of inhibition at 10 ug/ml; format: functional; conditions: Sampaiozyma ingeniosa; read-out: IZ
Pseudomonas = test: Antimicrobial activity against Pseudomonas assessed as zone of inhibition at 10 ug/ml; format: functional; conditions: read-out: IZ
Streptomyces = test: Antimicrobial activity against Streptomyces assessed as zone of inhibition at 10 ug/ml; format: functional; conditions: read-out: IZ
Bacillus subtilis [14] = test: Antimicrobial activity against Bacillus subtilis assessed as zone of inhibition at 10 ug/ml; format: functional; conditions: read-out: IZ
Penicillium = test: Antifungal activity against Penicillium assessed as zone of inhibition at 10 ug/ml; format: functional; conditions: read-out: IZ
Lactococcus lactis = test: Antimicrobial activity against Streptococcus lactis assessed as zone of inhibition at 10 ug/ml; format: functional; conditions: read-out: IZ
Aspergillus niger [15] = test: Antifungal activity against Aspergillus niger assessed as zone of inhibition at 10 ug/ml; format: functional; conditions: read-out: IZ
Candida albicans [16] = test: Antifungal activity against Candida albicans assessed as zone of inhibition at 10 ug/ml; format: functional; conditions: read-out: IZ
Escherichia coli [17] = test: Antimicrobial activity against Escherichia coli assessed as zone of inhibition at 10 ug/ml; format: functional; conditions: read-out: IZ
Staphylococcus aureus [18] = test: Antimicrobial activity against Staphylococcus aureus assessed as zone of inhibition at 250 ug/ml; format: functional; conditions: read-out: IZ
Bacillus cereus [19] = test: Antimicrobial activity against Bacillus cereus assessed as zone of inhibition at 250 ug/ml; format: functional; conditions: read-out: IZ
Candida albicans [20] = test: Antifungal activity against Candida albicans; format: functional
Bacillus cereus [21] = test: Antimicrobial activity against Bacillus cereus; format: functional
Pseudomonas aeruginosa [22] = test: Antimicrobial activity against Pseudomonas aeruginosa; format: functional
Aspergillus niger [23] = test: Antifungal activity against Aspergillus niger; format: functional
Pseudomonas aeruginosa [24] = test: Antimicrobial activity against Pseudomonas aeruginosa assessed as zone of inhibition at 250 ug/ml; format: functional; conditions: read-out: IZ
Staphylococcus aureus [25] = test: Antimicrobial activity against Staphylococcus aureus; format: functional
Escherichia coli [26] = test: Antimicrobial activity against Escherichia coli assessed as zone of inhibition at 250 ug/ml; format: functional; conditions: read-out: IZ
Aspergillus niger [27] = test: Antifungal activity against Aspergillus niger assessed as zone of inhibition at 250 ug/ml; format: functional; conditions: read-out: IZ
Candida albicans [28] = test: Antifungal activity against Candida albicans assessed as zone of inhibition at 250 ug/ml; format: functional; conditions: read-out: IZ
Escherichia coli [29] = test: Antimicrobial activity against Escherichia coli assessed as zone of inhibition at 250 ug/ml after 24 hrs by disk diffusion method; format: functional; conditions: read-out: IZ
Escherichia coli [30] = test: Antimicrobial activity against Escherichia coli; format: functional
Salmonella typhimurium = test: Antimicrobial activity against Salmonella typhimurium; format: functional, Salmonella enterica subsp. enterica serovar Typhimurium; conditions: Salmonella enterica
Bacillus subtilis [31] = test: Antimicrobial activity against Bacillus subtilis; format: functional
Bacillus thuringiensis = test: Antimicrobial activity against Bacillus thuringiensis; format: functional
Streptococcus pneumoniae = test: Antimicrobial activity against Streptococcus pneumoniae; format: functional
Prescottella equi = test: Antimicrobial activity against Rhodococcus equi; format: functional; conditions: Rhodococcus (subgen. Prescottella) equi
Proteus vulgaris = test: Antimicrobial activity against Proteus vulgaris; format: functional
Proteus mirabilis = test: Antimicrobial activity against Proteus mirabilis; format: functional
Aspergillus flavus [32] = test: Antifungal activity against Aspergillus flavus; format: functional
Fusarium oxysporum = test: Antifungal activity against Fusarium oxysporum; format: functional

CCCn1nnnc1Sc1c(OC)nc(N)nc1OC
24 mm: zone of inhibition at 100 µg/mL (Streptococcus agalactiae) | zone of inhibition at 100 µg/mL (Staphylococcus aureus [1]) | zone of inhibition at 100 µg/mL (Klebsiella pneumoniae [2])

Cc1ccc2nc(C)c(Cn3cc(CSc4nnnn4-c4ccccc4)nn3)cc2c1
11 to 19 mm: zone of inhibition at 5000 µg/mL (Staphylococcus aureus [3]) | zone of inhibition at 5000 µg/mL (Klebsiella pneumoniae [4]) | zone of inhibition at 5000 µg/mL (Pseudomonas aeruginosa [5]) | zone of inhibition at 5000 µg/mL (Escherichia coli [6])

Cc1cc(=O)oc2cc(OCC(O)Cn3nnnc3C)ccc12 (configuration not stated)
4 to 512 µg/mL: MIC (Pseudomonas aeruginosa [7]) | MIC (Staphylococcus aureus [8]) | MIC (Cyberlindnera jadinii) | MIC (Escherichia coli [9]) | MIC (Shigella dysenteriae) | MIC (Candida albicans [10]) | MIC (Saccharomyces cerevisiae) | MIC (Aspergillus flavus [11]) | MIC (Pichia norvegensis) | MIC (Micrococcus luteus) | MIC (Bacillus subtilis [12])

c1ccc2c(c1)nnn2Cc1nnn[nH]1
11 to 16 mm: zone of inhibition at 10 µg/mL [13] | zone of inhibition at 10 µg/mL (Pseudomonas) | zone of inhibition at 10 µg/mL (Streptomyces) | zone of inhibition at 10 µg/mL (Bacillus subtilis [14]) | zone of inhibition at 10 µg/mL (Penicillium) | zone of inhibition at 10 µg/mL (Lactococcus lactis) | zone of inhibition at 10 µg/mL (Aspergillus niger [15]) | zone of inhibition at 10 µg/mL (Candida albicans [16]) | zone of inhibition at 10 µg/mL (Escherichia coli [17])

Clc1ccc(-c2nnnn2-c2nc3ccccc3s2)cc1
16 to 26 mm: zone of inhibition at 250 µg/mL (Staphylococcus aureus [18]) | zone of inhibition at 250 µg/mL (Bacillus cereus [19]) | zone of inhibition at 250 µg/mL (Pseudomonas aeruginosa [24]) | zone of inhibition at 250 µg/mL (Escherichia coli [26]) | zone of inhibition at 250 µg/mL (Aspergillus niger [27]) | zone of inhibition at 250 µg/mL (Candida albicans [28])
50 to 100 µg/mL: MIC (Candida albicans [20]) | MIC (Bacillus cereus [21]) | MIC (Pseudomonas aeruginosa [22]) | MIC (Aspergillus niger [23]) | MIC (Staphylococcus aureus [25]) | MIC (Escherichia coli [30])
18 to 26 mm: zone of inhibition at 250 µg/mL (Escherichia coli [29])

COc1nc(N)nc(OC)c1Sc1nnnn1CC1CCCCC1
10 to 24 mm: zone of inhibition at 100 µg/mL (Streptococcus agalactiae) | zone of inhibition at 100 µg/mL (Staphylococcus aureus [1]) | zone of inhibition at 100 µg/mL (Klebsiella pneumoniae [2])

CCCCn1nnnc1Sc1c(OC)nc(N)nc1OC
10 to 24 mm: zone of inhibition at 100 µg/mL (Streptococcus agalactiae) | zone of inhibition at 100 µg/mL (Staphylococcus aureus [1]) | zone of inhibition at 100 µg/mL (Klebsiella pneumoniae [2])

Cc1ccc2cc(Cn3cc(CSc4nnnn4-c4ccccc4)nn3)c(C)nc2c1
11 to 19 mm: zone of inhibition at 5000 µg/mL (Staphylococcus aureus [3]) | zone of inhibition at 5000 µg/mL (Klebsiella pneumoniae [4]) | zone of inhibition at 5000 µg/mL (Pseudomonas aeruginosa [5]) | zone of inhibition at 5000 µg/mL (Escherichia coli [6])

c1ccc(N2CCN(c3ncnc4c3Sc3nnnn3N4)CC2)cc1
51 to 410 µg/mL: MIC (Salmonella typhimurium) | MIC (Bacillus subtilis [31]) | MIC (Bacillus thuringiensis) | MIC (Streptococcus pneumoniae) | MIC (Prescottella equi) | MIC (Proteus vulgaris) | MIC (Proteus mirabilis)

c1ccc(-n2cc(-c3nnn[nH]3)nn2)cc1
100 µg/mL: MIC (Aspergillus niger [23]) | MIC (Aspergillus flavus [32]) | MIC (Fusarium oxysporum)

Clc1ccc(-n2cc(-c3nnn[nH]3)nn2)cc1
100 µg/mL: MIC (Aspergillus niger [23]) | MIC (Aspergillus flavus [32]) | MIC (Fusarium oxysporum)

Cc1cc(=O)oc2cc(OCC(O)Cn3cnnn3)ccc12 (configuration not stated)
8 to 512 µg/mL: MIC (Pseudomonas aeruginosa [7]) | MIC (Staphylococcus aureus [8]) | MIC (Cyberlindnera jadinii) | MIC (Escherichia coli [9]) | MIC (Shigella dysenteriae) | MIC (Candida albicans [10]) | MIC (Saccharomyces cerevisiae) | MIC (Aspergillus flavus [11]) | MIC (Pichia norvegensis) | MIC (Micrococcus luteus) | MIC (Bacillus subtilis [12])

O=[N+]([O-])c1ccc(-c2nnnn2-c2nc3ccccc3s2)cc1
16 to 26 mm: zone of inhibition at 250 µg/mL (Staphylococcus aureus [18]) | zone of inhibition at 250 µg/mL (Bacillus cereus [19]) | zone of inhibition at 250 µg/mL (Pseudomonas aeruginosa [24]) | zone of inhibition at 250 µg/mL (Escherichia coli [26]) | zone of inhibition at 250 µg/mL (Aspergillus niger [27]) | zone of inhibition at 250 µg/mL (Candida albicans [28])
50 to 100 µg/mL: MIC (Candida albicans [20]) | MIC (Bacillus cereus [21]) | MIC (Pseudomonas aeruginosa [22]) | MIC (Aspergillus niger [23]) | MIC (Staphylococcus aureus [25]) | MIC (Escherichia coli [30])
18 to 26 mm: zone of inhibition at 250 µg/mL (Escherichia coli [29])
